Laboratory results published in US20090247559A1 (Exelixis, Inc., priority 2007, published 2009).

How the values were obtained:
[1] = target: PIM (PIM-1, PIM-2, and/or PIM-3); assay: PIM-1, PIM-2 and PIM-3 inhibition, biochemical chemiluminescence assays (Kinase Glo, IC50 determination); conditions: Table 1 activity class; PIM refers to PIM-1, PIM-2, and/or PIM-3; read-out: PIM IC50 (Activity B)
CK2 = CK2 (Homo sapiens, UniProt P68400); assay: CK2 inhibition, biochemical chemiluminescence holoenzyme assay (Kinase Glo, IC50 determination); conditions: Table 1 activity class; symbol given only if active; read-out: CK2 IC50 (Activity C)
Procedure, shortened: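 Holoenzyme CK2 assay; compounds pre-incubated with substrate and enzyme, then reacted 150 min at 24-27° C. Remaining ATP measured as luminescence with Kinase Glo, and IC50 derived from the signal.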

Chain of CK2 (P68400 whole entry): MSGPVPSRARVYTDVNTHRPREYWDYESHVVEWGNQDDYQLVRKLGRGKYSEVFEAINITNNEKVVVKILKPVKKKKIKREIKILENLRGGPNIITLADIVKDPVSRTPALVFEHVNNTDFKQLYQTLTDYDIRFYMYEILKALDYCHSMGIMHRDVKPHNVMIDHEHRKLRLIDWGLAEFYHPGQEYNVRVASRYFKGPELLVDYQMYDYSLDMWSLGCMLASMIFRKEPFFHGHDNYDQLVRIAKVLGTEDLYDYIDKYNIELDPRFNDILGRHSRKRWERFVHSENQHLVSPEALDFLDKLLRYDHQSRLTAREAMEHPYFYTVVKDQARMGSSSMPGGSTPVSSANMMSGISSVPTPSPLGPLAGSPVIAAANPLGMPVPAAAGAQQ
Chain of CK2 (P67870 whole entry partner): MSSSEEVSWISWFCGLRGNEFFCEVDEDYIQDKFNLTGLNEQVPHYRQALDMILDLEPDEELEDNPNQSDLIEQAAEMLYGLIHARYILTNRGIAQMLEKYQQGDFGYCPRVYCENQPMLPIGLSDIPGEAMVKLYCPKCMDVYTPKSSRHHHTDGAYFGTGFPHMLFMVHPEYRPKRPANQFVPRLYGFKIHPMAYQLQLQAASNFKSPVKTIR

Structure (SMILES)	IC50 [1]	IC50 (CK2)
CC(=O)Nc1ccc(C(=O)Nc2ccc(Cl)c(-c3nc4c(oc5ccc(Br)cc54)c(=O)[nH]3)c2)cc1 [Compound 356, 4-(acetylamino)-N-[3-(8-bromo-4-oxo-3,4-dihydro[1]benzofuro[3,2-d]pyrimidin-2-yl)-4-chlorophenyl]benzamide]	< 10 µM	< 10 µM
CN(C)Cc1ccc(-c2nc3c(oc4ccc(Br)cc43)c(=O)[nH]2)cc1 [Compound 358, 8-Bromo-2-{4-[(dimethylamino)methyl]phenyl}[1]benzofuro[3,2-d]pyrimidin-4(3H)-one]	< 10 µM	< 10 µM
O=c1[nH]c(-c2ccc(OCC3CNCCO3)cc2)nc2c1oc1ccc(Br)cc12 (centres unmarked) [Compound 359, 8-Bromo-2-{4-[(morpholin-2-ylmethyl)oxy]phenyl}[1]benzofuro[3,2-d]pyrimidin-4(3H)-one]	< 10 µM	< 10 µM
O=C(Nc1ccc(-c2nc3c(oc4ccc(Br)cc43)c(=O)[nH]2)cc1)c1ccncc1 [Compound 360, N-[4-(8-bromo-4-oxo-3,4-dihydro[1]benzofuro[3,2-d]pyrimidin-2-yl)phenyl]pyridine-4-carboxamide]	< 10 µM	< 10 µM
O=C(Nc1ccc(Cl)c(-c2nc3c(oc4ccc(Br)cc43)c(=O)[nH]2)c1)C1CCOC1 (centres unmarked) [Compound 361, N-[3-(8-bromo-4-oxo-3,4-dihydro[1]benzofuro[3,2-d]pyrimidin-2-yl)-4-chlorophenyl]tetrahydrofuran-3-carboxamide]	< 10 µM	< 10 µM
CC(=O)N[C@H]1CCN(Cc2nc3c(oc4ccc(Br)cc43)c(=O)[nH]2)C1 [Compound 365, N-{(3S)-1-[(8-bromo-4-oxo-3,4-dihydro[1]benzofuro[3,2-d]pyrimidin-2-yl)methyl]pyrrolidin-3-yl}acetamide]	< 10 µM	< 10 µM
O=C(Nc1ccc(Cl)c(-c2nc3c(oc4ccc(Br)cc43)c(=O)[nH]2)c1)c1ccccc1 [Compound 371, N-[3-(8-bromo-4-oxo-3,4-dihydro[1]benzofuro[3,2-d]pyrimidin-2-yl)-4-chlorophenyl]benzamide]	< 10 µM	< 10 µM
O=C(Nc1ccc(Cl)c(-c2nc3c(oc4ccc(Br)cc43)c(=O)[nH]2)c1)c1ccno1 [Compound 372, N-[3-(8-bromo-4-oxo-3,4-dihydro[1]benzofuro[3,2-d]pyrimidin-2-yl)-4-chlorophenyl]isoxazole-5-carboxamide]	< 10 µM	< 10 µM
NC[C@H]1CC[C@H](c2nc3c(oc4ccc(Br)cc43)c(=O)[nH]2)CC1 [Compound 376, 2-[trans-4-(Aminomethyl)cyclohexyl]-8-bromo[1]benzofuro[3,2-d]pyrimidin-4(3H)-one]	< 10 µM	< 10 µM
CNCc1ccc(-c2nc3c(oc4ccc(Br)cc43)c(=O)[nH]2)cc1 [Compound 382, 8-bromo-2-{4-[(methylamino)methyl]phenyl}[1]benzofuro[3,2-d]pyrimidin-4(3H)-one]	< 10 µM	< 10 µM
O=C(Nc1ccc(-c2nc3c(oc4ccc(Br)cc43)c(=O)[nH]2)c(Cl)c1)c1ccc(-n2cccn2)nc1 [Compound 396, N-[4-(8-bromo-4-oxo-3,4-dihydro[1]benzofuro[3,2-d]pyrimidin-2-yl)-3-chlorophenyl]-6-(1H-pyrazol-1-yl)pyridine-3-carboxamide]	< 10 µM	< 10 µM
O=C(Nc1ccc(-c2nc3c(oc4ccc(Br)cc43)c(=O)[nH]2)c(Cl)c1)c1cnc2ccccc2n1 [Compound 397, N-[4-(8-bromo-4-oxo-3,4-dihydro[1]benzofuro[3,2-d]pyrimidin-2-yl)-3-chlorophenyl]quinoxaline-2-carboxamide]	< 10 µM	< 10 µM
O=c1[nH]c(CN2CCC[C@@H](O)C2)nc2c1oc1ccc(Br)cc12 [Compound 402, 8-bromo-2-{[(3R)-3-hydroxypiperidin-1-yl]methyl}[1]benzofuro[3,2-d]pyrimidin-4(3H)-one]	< 10 µM	< 10 µM
